Values quoted from earlier work as cited in US20050147663A1, “Method of treatment for improved bioavailability” (priority 2003, published 2005).

Tests used:
[1] = enhanced by food in some instances, reduced in others
[2] = standard breakfast; capsules
[3] = delayed release formulations, drug given 30 minutes after food

Compound | bioavailability affected by the presence of food [1] | further results
CC(C)CN(C[C@@H](O)[C@H](Cc1ccccc1)NC(=O)O[C@H]1CCOC1)S(=O)(=O)c1ccc(N)cc1 [amprenavir] | affected | –
C[C@H]1c2cccc(O)c2C(=O)C2=C(O)[C@]3(O)C(=O)C(C(N)=O)=C(O)[C@@H](N(C)C)[C@@H]3[C@@H](O)[C@@H]21 [doxycycline] | – | bioavailability as judged by AUC and Cmax [2]: reduced
O=C1Nc2ccc(Cl)cc2[C@@](C#CC2CC2)(C(F)(F)F)O1 [efavirenz] | affected | –
COc1ccc2[n-]c([S+]([O-])Cc3ncc(C)c(OC)c3C)nc2c1.COc1ccc2[n-]c([S+]([O-])Cc3ncc(C)c(OC)c3C)nc2c1.[Mg+2] (centres unmarked) [esomeprazole magnesium] | – | decrease of the drug AUC (delayed release capsules, administration after food intake): 43-53%
CC(C)(C)NC(=O)[C@@H]1CN(Cc2cccnc2)CCN1C[C@@H](O)C[C@@H](Cc1ccccc1)C(=O)N[C@H]1c2ccccc2C[C@H]1O [indinavir] | affected | –
Nc1ccn([C@@H]2CS[C@H](CO)O2)c(=O)n1 [lamivudine] | affected | –
Cc1c(OCC(F)(F)F)ccnc1C[S+]([O-])c1nc2ccccc2[nH]1 (centres unmarked) [lansoprazole] | – | AUC diminished [3]: 50-70%; Cmax diminished [3]: 50-70%
Cc1c(O)cccc1C(=O)N[C@@H](CSc1ccccc1)[C@H](O)CN1C[C@H]2CCCC[C@H]2C[C@H]1C(=O)NC(C)(C)C [nelfinavir] | affected | –
COc1ccc2[nH]c([S+]([O-])Cc3ncc(C)c(OC)c3C)nc2c1 (centres unmarked) [omeprazole] | – | reduction in Cmax (20 mg delayed release capsule, administered with applesauce): 25%; food effect (40 mg delayed release capsule, with applesauce): does not show a food effect
COc1ccnc(C[S+]([O-])c2nc3ccc(OC(F)F)cc3[nH]2)c1OC (centres unmarked) [pantoprazole sodium] | – | Tmax variability (delayed release product): highly variable; Tmax change when given with food (delayed release product, given with food): can increase significantly
CC(C)c1nc(CN(C)C(=O)N[C@H](C(=O)N[C@@H](Cc2ccccc2)C[C@H](O)[C@H](Cc2ccccc2)NC(=O)OCc2cncs2)C(C)C)cs1 [ritonavir] | affected | –
CC(C)(C)NC(=O)[C@@H]1C[C@@H]2CCCC[C@@H]2CN1C[C@@H](O)[C@H](Cc1ccccc1)NC(=O)[C@H](CC(N)=O)NC(=O)c1ccc2ccccc2n1 [saquinavir] | affected | –
Nc1ccn([C@H]2CC[C@@H](CO)O2)c(=O)n1 [zalcitabine] | affected | –
Cc1cn([C@H]2C[C@H](N=[N+]=[N-])[C@@H](CO)O2)c(=O)[nH]c1=O [zidovudine] | affected | –
